The values that follow come from patent US20030162759A1, “Aldosterone blocker therapy to prevent or treat inflammation-related disorders” (priority 2000, published 2003).

Each structure is given as a SMILES string. “Also recorded” adds a separate entry of the source.

Type in all cases: in vivo, rat
For test [1], the system named is angiotensin II infused rats. Nature of the test: Assay A angiotensin II infusion model: systolic blood pressure by tail-cuff. The conditions noted are these: Wistar rats, 1% NaCl, angiotensin II 25 ng/min sc; eplerenone 100 mpk; 4 weeks. As for the experimental part: Assay A: In Vivo Angiotensin II Infusion Model
(§1) Male Wistar rats (n—50, 10/group; BW=200 g)
(§2) 2. Angiotensin 11 (25 ng/min, sc via aizet minipump)
SBP measured by tail-cuff every week

Test [2] has as its system angiotensin II infused rats. The test is described as follows: Assay A angiotensin II infusion model: heart histology (coronary vascular inflammation, myocardial injury). The conditions noted are these: for Vascular inflammation and myocardial injury in the heart: angiotensin II infused rats, aldosterone given to adrenalectomized rats.
In test [3] the test system is cyclooxygenase-2 (COX-2). Nature of the test: Assay A angiotensin II infusion model: cyclooxygenase-2 immunostaining of hearts. Conditions: angiotensin II infused rats; eplerenone 100 mpk. The procedure: as §1, §2
Test [4] has as its system osteopontin. Nature of the test: Assay A angiotensin II infusion model: osteopontin immunostaining of hearts. Conditions: angiotensin II infused, saline-drinking rats; eplerenone 100 mpk. The procedure:
as §1, §2
Osteopontin (also known as early T-cell activation-1, Eta-1) is a secreted glycoprotein with pro-inflammatory characteristics that mediates chemoattraction, activation and migration of monocytes.

The subject of test [5] is aldosterone infused rats. The test is described as follows: Assay B aldosterone infusion model: systolic blood pressure by radio-telemetry. The conditions noted are these: saline-drinking, uni-nephrectomized Sprague Dawley rats, eplerenone 100 mpk p.o. As for the experimental part:
Assay B: In vivo Aldosterone Infusion Model Male Sprague Dawley rats (n=39; BW=250 g) […] Uni-nephrectomy performed during implantation of mini-pumps 2. Aldosterone ([…], sc via aizet minipump) 2. […] 1. […] SBP measured by radio-telemetry probes inserted in the abdominal aorta Sacrifice after 4 weeks.

In test [6] the test system is aldosterone + salt treated rats. Nature of the test: Assay C further aldosterone infusion study: radiotelemetrized systolic blood pressure. An excerpt:
Assay C: Further in vivo Aldosterone Infusion Study The procedure of Assay B was expanded upon in a further study. […] Myocardial tissue from animals in each treatment group was examined after 7, 14, or 30 days of treatment. […] Lesions were preceded by the expression and progressive upregulation of proinflammatory molecules. […] Male Sprague-Dawley rats, weighing 230 to 250 g, (Harlan Sprague-Dawley Industries, Indianapolis, Ind.) were housed in a room 12-hours light/12-hours dark daily cycle at an ambient temperature of 22±1° C. (n=96). Animals were allowed one week to adjust after arrival and had free access to TEKLAD 22/5 rodent diet (Harlan TEKLAD, Madison, Wis.) and tap water until the initiation of the experiment. Prior to surgery the animals were individually weighed and placed in one of the following groups: […] Potassium chloride supplementation was added to the saline solution in order to prevent the potential hypokalemia associated with aldosterone excess. […] Louis, Mo.) was inserted subcutaneously at the nape of the neck. Aldosterone was administered at a dose of […]. […] Animals were sacrificed from each group (n=8-13) after 7, 14, or 30 days of treatment. Animals to be sacrificed after 7 or 14 days of treatment were uninephrectomized and implanted with an Alzet minipump. Animals treated for 30 days were uninephrectomized, fitted for Alzet minipumps, and implanted with radio telemetry units (model#TA11PA-C40, Data Sciences Inc., St. Paul, Minn.) according to the following procedure. […] The surgery site was clipped, scrubbed with nolvasan, and sprayed with betadine. A rostral-caudal incision was made through the skin from the base of the rib cage to the pubic region using a #11 scalpel blade. A second incision was made through the muscles of the abdominal wall to expose the peritoneal cavity. […] Organs were carefully displaced with tissue retractors in order to expose the abdominal aorta. A 1.5 cm segment just rostral to the bifurcation of the abdominal aorta into the iliac arteries was cleared of excessive connective tissue and 4-0 silk was used to make an anchor adjacent to the aorta. A microvascular clip was then placed at both ends of the cleaned region to stop excessive blood flow. Using a bent, 21 gauge needle, the abdominal aorta was penetrated. The cannula of the radio telemetry unit was inserted and stabilized in the aorta using the 4-0 silk anchor. Organs were repositioned and the telemetry unit was placed over the organs. Using a non-interrupted suture pattern with 4-0 silk, the abdominal wall was closed, and the skin was subsequently closed using a 4-0 silk in an interrupted suture pattern. […] Post-operative care included monitoring the animals on a heating pad during recovery from anesthesia until sternal recumbency was reestablished. Radiotelemetrized arterial blood pressure was calculated with the […] Version 1.1-Gold software (Data Sciences International, St. Paul, Minn.). Data points were collected over a 24 hour period with the collection rate set for a 10 second reading every 5 min for each animal. The 24 hour period used was from 6:00 a.m. to 6:00 a.m.

Consider `C[C@]12CCC(=O)C=C1CC[C@@H]1[C@@H]2[C@@H](O)C[C@]2(C=O)[C@@H](C(=O)CO)CC[C@@H]12` [aldosterone], for which the Systolic Blood Pressure result is given as “increased blood pressure” in test [1]; “Systolic blood pressure increased” in test [5]; 132 ± 6 mmHg in test [6] (Day 3, mean ± SEM of values every 5 min over 24-hour period); 137 ± 4 mmHg in test [6] (Day 5, mean ± SEM of values every 5 min over 24-hour period); 148 ± 5 mmHg in test [6] (Day 6, mean ± SEM of values every 5 min over 24-hour period); 155 ± 5 mmHg in test [6] (Day 7, mean ± SEM of values every 5 min over 24-hour period). For the same compound, the “Systolic Blood Pressure” value in test [6] (Day 8, mean ± SEM of values every 5 min over 24-hour period) is given as 156 ± 4 mmHg; in test [6] (Day 9, mean ± SEM of values every 5 min over 24-hour period), 164 ± 5 mmHg; in test [6] (Day 11, mean ± SEM of values every 5 min over 24-hour period) it was 171 ± 6 mmHg; in test [6] (Day 12, mean ± SEM of values every 5 min over 24-hour period), 178 ± 6 mmHg; in test [6] (Day 13, mean ± SEM of values every 5 min over 24-hour period), 182 ± 6 mmHg; in test [6] (Day 15, mean ± SEM of values every 5 min over 24-hour period), 181 ± 5 mmHg. Further, the “Systolic Blood Pressure” value was determined as 187 ± 6 mmHg in test [6] (Day 16, mean ± SEM of values every 5 min over 24-hour period); 195 ± 7 mmHg in test [6] (Day 17, mean ± SEM of values every 5 min over 24-hour period); 196 ± 6 mmHg in test [6] (Day 18, mean ± SEM of values every 5 min over 24-hour period); 200 ± 6 mmHg in test [6] (Day 19, mean ± SEM of values every 5 min over 24-hour period); 203 ± 5 mmHg in test [6] (Day 20, mean ± SEM of values every 5 min over 24-hour period); 208 ± 4 mmHg in test [6] (Day 21, mean ± SEM of values every 5 min over 24-hour period). For the same compound, the “Systolic Blood Pressure” value in test [6] (Day 22, mean ± SEM of values every 5 min over 24-hour period) is recorded as 209 ± 4 mmHg; in test [6] (Day 23, mean ± SEM of values every 5 min over 24-hour period), 208 ± 4 mmHg; in test [6] (Day 24, mean ± SEM of values every 5 min over 24-hour period) it was 210 ± 3 mmHg; in test [6] (Day 25, mean ± SEM of values every 5 min over 24-hour period), 210 ± 4 mmHg; in test [6] (Day 26, mean ± SEM of values every 5 min over 24-hour period), 210 ± 3 mmHg; in test [6] (uninephrectomized Sprague-Dawley rats, 1% NaCl-0.3% KCl, aldosterone infusion, eplerenone 100 mg/kg/day, up to 30 days, listed as Aldosterone+salt), “progressive increase in blood pressure with time”. In test [6] (uninephrectomized Sprague-Dawley rats, 1% NaCl-0.3% KCl, aldosterone infusion, eplerenone 100 mg/kg/day, up to 30 days, listed as Aldosterone/salt), the Systolic Blood Pressure result is “induced severe hypertension”. The “Vascular inflammation and myocardial injury in the heart” value in test [2] was “restored the severe coronary and myocardial inflammation and injury”. Further, the “Cyclooxygenase-2 expression in the heart (immunostaining)” value in test [3] was “restored the presence of cycloxygenase-2 in coronary arteries”. Further, the “Osteopontin expression in the heart (immunostaining)” value in test [4] is on record as “restored osteopontin expression”.

For `COC(=O)[C@@H]1CC2=CC(=O)CC[C@]2(C)[C@@]23O[C@@H]2C[C@@]2(C)[C@@H](CC[C@@]24CCC(=O)O4)[C@H]13` [eplerenone, Pregn-4-ene-7,21-dicarboxylic acid, 9,11-epoxy-17-hydroxy-3-oxo-, γ-lactone, methyl ester, (7α, 11α, 17β) -], the Systolic Blood Pressure entry was “Neither eplerenone nor adrenalectomy reduced blood pressure” in test [1]; “significantly reduced, but did not normalize blood pressure; also recorded: depression of this elevation” in test [5]; “significantly reduced” in test [6] (uninephrectomized Sprague-Dawley rats, 1% NaCl-0.3% KCl, aldosterone infusion, eplerenone 100 mg/kg/day, up to 30 days); “significantly reduced at days 8-30” in test [6] (uninephrectomized Sprague-Dawley rats, 1% NaCl-0.3% KCl, aldosterone infusion, eplerenone 100 mg/kg/day, up to 30 days, listed as eplerenone+aldosterone+salt). Besides, the “Vascular inflammation and myocardial injury in the heart” value in test [2] is given as “prevention by eplerenone (epoxymexrenone) of vascular inflammation in the heart”. Besides, in test [2] (out of ten animals per group, angiotensin II/salt, 4 weeks, eplerenone 100 mpk), the “Animals with vascular inflammatory lesions in the coronary arteries” value is on record as “only one of the ten”. For the same compound, the “Cyclooxygenase-2 expression in the heart (immunostaining)” value in test [3] was “prevention by eplerenone of induction of COX-2 expression; also recorded: markedly reduced and in most cases completely prevented the expression of cycloxygenase-2”. In test [4], the “Osteopontin expression in the heart (immunostaining)” value was “prevented osteopontin expression”.
